Assay [1] has as its target DAT (Rattus norvegicus, UniProt P23977). Description: Inhibition of [3H]dopamine uptake in rat caudate synaptosomes. Particulars: for Fold decrease in DAT potency relative to comparator compound: 8 vs 7, 15 vs 9, 16 vs 7, 17 vs 10. The format is biochemical.
Assay [2] concerns DAT. The settings on record: read-out: IC50 as DAT reuptake inhibitor; 3,4-dichloro-α-PVP series; cited from earlier work.
[3] abbreviates: read-out: IC50, nM (SD), inhibition at DAT, 5 nM [3H]dopamine uptake, rat caudate synaptosomes, mean ± SD, n = 3.

The structures appear in SMILES notation. Counter-ions that a name gives are not always drawn. Like-named read-outs stand apart in the source and are kept apart here.

DAT (Rattus norvegicus, UniProt P23977), sequence (P23977 whole entry): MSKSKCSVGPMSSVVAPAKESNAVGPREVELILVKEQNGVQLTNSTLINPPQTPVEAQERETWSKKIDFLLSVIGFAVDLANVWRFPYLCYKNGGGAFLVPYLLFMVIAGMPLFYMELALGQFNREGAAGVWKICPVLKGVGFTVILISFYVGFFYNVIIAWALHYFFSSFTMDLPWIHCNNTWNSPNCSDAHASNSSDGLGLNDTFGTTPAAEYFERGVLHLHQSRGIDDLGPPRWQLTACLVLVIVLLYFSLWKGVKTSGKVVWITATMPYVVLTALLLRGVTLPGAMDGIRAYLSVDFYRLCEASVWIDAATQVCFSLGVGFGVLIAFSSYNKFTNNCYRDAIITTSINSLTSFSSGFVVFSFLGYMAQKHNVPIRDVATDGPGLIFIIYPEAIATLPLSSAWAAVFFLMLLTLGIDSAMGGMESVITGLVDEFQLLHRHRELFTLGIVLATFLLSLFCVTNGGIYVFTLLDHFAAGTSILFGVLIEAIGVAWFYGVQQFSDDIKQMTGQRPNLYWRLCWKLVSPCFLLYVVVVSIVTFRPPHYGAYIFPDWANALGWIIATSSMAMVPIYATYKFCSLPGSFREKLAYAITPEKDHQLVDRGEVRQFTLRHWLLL

As a reminder, the IC50 is the point on the concentration scale where inhibition reaches its midpoint. As for `O=C(CN1CCCC1)c1ccccc1.O=C(O)C(=O)O` [compound 8, 2-(1-Pyrolidinyl)-1-acetophenone Oxalate], in assay [1], the “Fold decrease in DAT potency relative to comparator compound” value is on record as 185 fold. The IC50 in assay [1] (setting [3]) stood at 3250 nM.

For the compound `CC(C)C(C(=O)c1ccccc1)N1CCCC1` (centres unmarked) [compound 11], the IC50 in assay [1] (setting [3]) was determined as 92.3 nM.

`O=C(c1ccccc1)C(C1CCCC1)N1CCCC1` (centres unmarked) [compound 13, 2-Cyclopentyl-1-phenyl-2-(pyrrolidin-1-yl)ethanone Hydrochloride] registered an IC50 in assay [1] of 17.1 nM.

The compound `CCCC(C(=O)c1ccccc1)N1CCCCC1` (centres unmarked) [compound 16, 1-Phenyl-2-(piperidin-1-yl)pentan-1-one Hydrochloride] gave an IC50 in assay [1] of 128 nM.

Regarding `CCCCC(C(=O)c1ccccc1)N1CCCC1` (centres unmarked) [compound 12, 1-Phenyl-2-(pyrrolidin-1-yl)hexanone Oxalate], the IC50 in assay [1] (setting [3]) is 11.6 nM. `O=C(O)C(=O)O.O=C1c2ccccc2CCC1N1CCCC1` (centres unmarked) [compound 17, 2-(Pyrrolidin-1-yl)-3,4-dihydronaphthalen-1(2H)-one Oxalate]: in assay [1], the half-inhibitory concentration (IC50) came out at 12900 nM and the “Fold decrease in DAT potency relative to comparator compound” value was determined as 200 fold. As to `CCCC(C(=O)c1ccc(Cl)c(Cl)c1)N1CCCC1` (stereo not drawn) [3,4-dichloro-α-PVP], the IC50 in assay [2] was 43 nM. The compound `O=C(c1ccccc1)C(C1CCCCC1)N1CCCC1` (centres unmarked) [compound 14, 2-Cyclohexyl-1-phenyl-2-(pyrrolidin-1-yl)ethanone Hydrochloride] displayed an IC50 in assay [1] of 8.3 nM. Take `CCCC(C(=O)c1ccccc1)N1CCCC1` (stereo not drawn) [compound 7, α-Pyrrolidinovalerophenone, reference compound]: in assay [1] (setting [3]), the IC50 turned out to be 17.5 nM.

The values are drawn from publication PMC5349767 (ACS chemical neuroscience, 2015).
